Here are results for four compounds from US6048712A, “Process for producing α-monoglucosyl hesperidin-rich substance” (Kabushiki Kaisha Hayashibara, priority 1997, dated 2000).

The conditions of series [1]: cited from earlier work.
For series [2] the following is noted: cited from earlier work. This is another data set of the same source.
The nature of series [3]: Dissolution and crystallization behaviour in lower alcohols. As to conditions: heated lower alcohols, then cooled below ambient temperature, for example 15-25° C. The format is physicochemical.

As to `COc1ccc([C@@H]2CC(=O)c3c(O)cc(O[C@@H]4O[C@H](CO[C@@H]5O[C@@H](C)[C@H](O)[C@@H](O)[C@H]5O)[C@@H](O)[C@H](O)[C@H]4O)cc3O2)cc1O` [Hesperidin], the solubility in water result in series [1] (ambient temperature, about one gram in 50 1 water) is “about 0.002 w/v %”. Further, the solubility in words result in series [1] (aqueous alkaline solutions, water and acids) was “dissolves in aqueous alkaline solutions but not substantially in water and acids”.
With `COc1ccc([C@@H]2CC(=O)c3c(O)cc(O)cc3O2)cc1O` [hesperetin, 3',5,7-trihydroxy-4'-metoxyflavanone], the water solubility entry in series [2] is “substantially water-insoluble”.
On to `COc1ccc(C2CC(=O)c3c(O)cc(O[C@@H]4O[C@H](CO[C@@H]5O[C@@H](C)[C@H](O)[C@@H](O)[C@H]5O)[C@@H](O[C@H]5O[C@H](CO)[C@@H](O)[C@H](O)[C@H]5O)[C@H](O)[C@H]4O)cc3O2)cc1O` (stereo partly drawn) [α-monoglucosyl hesperidin], for which, in series [3], the “solubility and crystallization in lower alcohols” value is on record as “easily dissolves in heated lower alcohols but easily crystallizes therein when the alcohols are cooled down to temperatures below ambient temperature”.
Same read-out and setting: the same measure for `COc1ccc(C2CC(=O)c3c(O)cc(O[C@@H]4O[C@H](CO)[C@@H](O)[C@H](O)[C@H]4O)cc3O2)cc1O` (stereo partly drawn) [β-monoglucosyl hesperetin, 7-O-β-monoglucosyl hesperetin]: “easily dissolves in lower alcohols and does not substantially crystallize even when the alcohols are cooled down to temperatures below ambient temperature”.
